According to patent US20220098265A1 (MEDIMMUNE LIMITED, priority 2012, published 2022):
pEC50: −log10 of the molar value. Read-outs that look alike come from different tables or passages of the source. Numbered stars: 1 amine (or outer) side, 2 acyl side, 3 side chain; on linkers, the order of the positions; unused ones are H or OH. Side chains are listed from the residue outwards. Peptide text beside a SMILES is read from it. * marks the point of attachment. γGlu = O=C(O)[C@H](CCC(=O)[*:2])N[*:1]; Palmitoyl = CCCCCCCCCCCCCCCC(=O)*

What was measured:
Human GLP1R = Human GLP1R (Homo sapiens, UniProt P43220); details: read-out: hGLP1R EC50; assay 1; additional peptides (Table 4)
Chain of Human GLP1R (P43220 24-463): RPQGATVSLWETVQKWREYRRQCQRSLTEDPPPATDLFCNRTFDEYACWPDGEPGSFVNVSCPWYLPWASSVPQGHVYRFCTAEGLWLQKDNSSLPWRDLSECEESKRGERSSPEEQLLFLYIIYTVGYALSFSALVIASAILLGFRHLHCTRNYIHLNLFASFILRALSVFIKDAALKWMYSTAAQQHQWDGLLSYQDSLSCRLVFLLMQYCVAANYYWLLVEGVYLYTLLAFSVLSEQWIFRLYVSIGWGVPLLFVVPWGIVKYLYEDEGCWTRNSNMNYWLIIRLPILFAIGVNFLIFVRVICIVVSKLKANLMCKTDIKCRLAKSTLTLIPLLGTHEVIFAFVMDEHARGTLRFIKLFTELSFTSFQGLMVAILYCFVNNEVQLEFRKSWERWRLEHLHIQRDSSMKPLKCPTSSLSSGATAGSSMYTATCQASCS
Procedure: (§1) All sample dilutions were made in duplicate.
(§2) A frozen cryo-vial of cells expressing the receptor of interest was thawed rapidly in a water-bath, transferred to pre-warmed assay media and spun at 240×g for 5 minutes. Cells were re-suspended in assay media at an optimised concentration (e.g. hGCGR cells at 1×10^5 cells/ml, hGLP-1R and hGIPR cells at 0.5×10^5 cells/ml).
(§3) To this, 5 μL cell suspension was added and the plates incubated at room temperature for 30 minutes.
(§4) cAMP levels were measured using a commercially available cAMP dynamic 2 HTRF kit (Cisbio, Cat #62AM4PEJ), following the two step protocol as per manufacturer's recommendations. In brief; anti-cAMP cryptate (donor fluorophore) and cAMP-d2 (acceptor fluorophore) were made up separately by diluting each 1/20 in conjugate & lysis buffer provided in the kit. 5 μL anti-cAMP cryptate was added to all wells of the assay plate, and 5 μL cAMP-d2 added to all wells except non-specific binding (NSB) wells, to which conjugate and lysis buffer was added.

Human GlucR [1] = molecular target: T1, Human GlucR (Homo sapiens, UniProt P47871); details: read-out: hGlucR EC50; assay 1; additional peptides (Table 4)
T1 sequence (P47871 26-477): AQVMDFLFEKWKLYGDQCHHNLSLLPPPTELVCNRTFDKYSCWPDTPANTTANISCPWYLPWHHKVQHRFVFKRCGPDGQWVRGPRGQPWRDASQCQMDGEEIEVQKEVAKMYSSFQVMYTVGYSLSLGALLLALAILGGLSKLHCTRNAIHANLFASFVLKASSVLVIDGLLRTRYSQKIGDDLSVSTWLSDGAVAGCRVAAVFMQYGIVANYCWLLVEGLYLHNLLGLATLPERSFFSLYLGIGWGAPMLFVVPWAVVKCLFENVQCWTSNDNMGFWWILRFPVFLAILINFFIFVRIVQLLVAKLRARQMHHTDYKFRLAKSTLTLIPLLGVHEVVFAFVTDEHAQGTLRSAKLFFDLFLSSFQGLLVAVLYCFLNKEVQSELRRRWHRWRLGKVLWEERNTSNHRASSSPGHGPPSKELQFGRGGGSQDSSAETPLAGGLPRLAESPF
Procedure: as §1, §2, §3, §4

Human GIPr = molecular target: T2, Human GIPr (Homo sapiens, UniProt P48546); test: cAMP activity assay 1 in assay medium, human GIP receptor; type: cell-based; details: additional peptides (Table 4)
T2 construct: expressed in transfected cells
T2 sequence (P48546 22-466): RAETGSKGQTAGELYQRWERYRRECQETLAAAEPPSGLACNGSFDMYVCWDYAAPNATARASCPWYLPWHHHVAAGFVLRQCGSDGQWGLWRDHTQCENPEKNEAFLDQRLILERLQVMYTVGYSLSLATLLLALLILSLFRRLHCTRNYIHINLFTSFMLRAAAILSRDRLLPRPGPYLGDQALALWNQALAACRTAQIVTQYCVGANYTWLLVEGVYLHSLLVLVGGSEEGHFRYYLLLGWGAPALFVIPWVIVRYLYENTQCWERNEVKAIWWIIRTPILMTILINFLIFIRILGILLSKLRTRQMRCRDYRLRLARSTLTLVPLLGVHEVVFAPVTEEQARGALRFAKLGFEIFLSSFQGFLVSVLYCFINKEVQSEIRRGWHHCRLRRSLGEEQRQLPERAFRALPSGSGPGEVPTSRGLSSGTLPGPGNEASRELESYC
Procedure: as §1, §2, §3, §4

DIO mice = test: Diet induced obesity (DIO) mouse model, study B; type: in vivo; details: for BW day 14 (% change of vehicle mean) / HOMA / Hepatic TG (g TG/100g tissue) / Plasma NEFA / Plasma TG: day 14; for Glucose / Insulin: day 14, 4-hour fasting
Procedure: The body weight of the animals was monitored daily throughout the dosing period At day 14, blood samples for the measurement of plasma glucose and insulin from conscious mice were obtained after a 4-hour fasting period. Mice were then anaesthetized using isofluorane and terminal blood was collected from the capillary bed behind the eye. The following parameters were measured: blood chemistry measurements of triglycerides, total cholesterol, non-esterified fatty acids (NEFA), beta-hydroxybutyrate and fibroblast growth factor 21 (FGF21) (Table 16 and Table 17 below).

human serum albumin = human serum albumin (Homo sapiens, UniProt P02768); test: Fraction of free peptide at plasma concentration of albumin, calculated from variation in cAMP generation with HSA concentration; type: in vitro ADME; design: purchased Sigma Aldrich
Chain of human serum albumin (P02768 25-609): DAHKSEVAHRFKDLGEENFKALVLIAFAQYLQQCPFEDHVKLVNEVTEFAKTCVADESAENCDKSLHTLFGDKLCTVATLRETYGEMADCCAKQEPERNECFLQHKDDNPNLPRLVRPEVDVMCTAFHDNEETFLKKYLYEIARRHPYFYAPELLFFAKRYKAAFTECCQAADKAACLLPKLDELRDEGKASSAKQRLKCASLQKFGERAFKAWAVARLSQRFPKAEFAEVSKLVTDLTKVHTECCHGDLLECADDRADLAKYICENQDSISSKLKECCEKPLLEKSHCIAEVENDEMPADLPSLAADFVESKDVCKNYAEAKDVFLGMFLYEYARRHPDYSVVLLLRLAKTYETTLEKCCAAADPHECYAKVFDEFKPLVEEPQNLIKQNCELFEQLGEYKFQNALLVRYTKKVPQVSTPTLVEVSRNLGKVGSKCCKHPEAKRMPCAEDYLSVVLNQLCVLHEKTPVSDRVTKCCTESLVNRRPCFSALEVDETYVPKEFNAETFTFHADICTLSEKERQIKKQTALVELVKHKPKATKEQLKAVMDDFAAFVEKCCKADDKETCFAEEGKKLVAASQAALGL

[2] = Stability testing of peptides in human plasma; type: in vitro ADME
Procedure: Stability testing of peptides in plasma. The stability in plasma of the peptides […], […], […] and […] was determined as follows. […] The frozen blank plasma from human, rat and mouse had been thawed and heated to a temperature of 37° C. before addition of the stock solution. The spiked plasma samples were gently mixed and allowed to equilibrate for about 5 minutes before start of experiment. The plasma samples were incubated for 48 hours in a Galaxy® CO2 incubator at 37° C. […] The samples were stored at -70° C. until analysis. Plasma samples were assayed as follows. The 30 μL plasma samples were protein precipitated with […] of cold ethanol in a 96-well low bind plate (Eppendorf Protein LoBind). After mixing and centrifugation 100 μl the supernatant was transferred to a new plate and 1 μl was injected onto an analytical column. The analysis was performed using a μLC-system ([…]) coupled to a medium high resolution mass spectrometer (Perkin Elmer PenTOF) with positive electrospray ionisation. […] Flow: 0.1 ml/min using a slow reversed phase gradient. […] Products with +1 mass may arise from deamidation at amide groups of glutamine or at the C-terminus. Cleavage products arise from the action of the protease DPP IV in plasma. Both the degradation of the peptides and formation of peptide products were reported in percentage of the initial peptide concentration. Peaks were integrated and % remaining peptide was calculated: […] Levels of deamidation and DPP IV cleavage were low for […] and […].

Mouse GlucR = Mouse GlucR (Mus musculus, UniProt Q61606); test: cAMP assay 2 in […] mouse serum albumin, mouse GlucR; details: assay 2, […] Mouse Serum Albumin; relative potencies vs natural ligands
Chain of Mouse GlucR (Q61606 27-485): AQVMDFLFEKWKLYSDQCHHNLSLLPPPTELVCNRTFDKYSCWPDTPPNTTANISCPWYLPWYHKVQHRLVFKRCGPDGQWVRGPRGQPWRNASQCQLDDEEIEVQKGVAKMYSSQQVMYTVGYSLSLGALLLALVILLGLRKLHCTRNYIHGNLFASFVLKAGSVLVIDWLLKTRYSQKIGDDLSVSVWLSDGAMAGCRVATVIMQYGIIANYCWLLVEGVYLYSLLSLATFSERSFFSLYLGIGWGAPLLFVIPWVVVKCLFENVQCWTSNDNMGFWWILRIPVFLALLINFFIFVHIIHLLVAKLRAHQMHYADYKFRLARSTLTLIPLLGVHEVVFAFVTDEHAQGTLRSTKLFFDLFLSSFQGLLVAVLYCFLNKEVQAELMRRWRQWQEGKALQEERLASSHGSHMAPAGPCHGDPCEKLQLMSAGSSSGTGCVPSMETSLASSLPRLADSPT

Human GlucR [3] = molecular target: T1, Human GlucR; test: cAMP assay 2 in 4.4% human serum albumin, human GlucR; details: assay 2, 4.4% Human Serum Albumin; relative potency GlucR (vs glucagon)/relative potency GLP1R (vs GLP1)

Procedure for physchem: Peptide solubility was assessed in three different isotonic formulations: • 1. […] Final formulation pH=7.2 • 2. Back up formulation 1 (BF1)=0.05M Tris, 50 mM Arginine/Proline. Final formulation pH=8.0 • 3. […] Final formulation pH=7.0

Listed in the section of parent HSQGTFTSDYSKYLDSRRAQDFVQWLEAGG; no modification printed [g536]
pEC50 (Human GLP1R): 10.13

CCCCCCCCCCCCCCCC(=O)N[C@@H](CCC(=O)NCCCC[C@H](NC(=O)[C@H](Cc1ccc(O)cc1)NC(=O)[C@H](CCCNC(=N)N)NC(=O)[C@H](CO)NC(=O)[C@H](Cc1ccc(O)cc1)NC(=O)[C@H](CC(=O)O)NC(=O)[C@H](CO)NC(=O)[C@@H](NC(=O)[C@H](Cc1ccccc1)NC(=O)[C@@H](NC(=O)CNC(=O)[C@H](CCC(N)=O)NC(=O)[C@H](CO)NC(=O)[C@@H](N)Cc1c[nH]cn1)[C@@H](C)O)[C@@H](C)O)C(=O)N[C@@H](CC(=O)O)C(=O)N[C@@H](CO)C(=O)N[C@@H](CCCNC(=N)N)C(=O)N[C@@H](CO)C(=O)N[C@@H](C)C(=O)N[C@@H](CCCNC(=N)N)C(=O)N[C@@H](CC(=O)O)C(=O)N[C@@H](Cc1ccccc1)C(=O)N[C@H](C(=O)N[C@@H](C)C(=O)N[C@@H](Cc1c[nH]c2ccccc12)C(=O)N[C@@H](CC(C)C)C(=O)N[C@@H](CCC(=O)O)C(=O)N[C@@H](C)C(N)=O)C(C)C)C(=O)O [g850] (H-HSQGTFTSDYSRYK([γGlu-Palmitoyl])DSRSARDFVAWLEA-NH2)
pEC50 (Human GlucR [1]): 11.66 | pEC50 (Human GLP1R): 10.67 | pEC50 (Human GIPr; read-out: hGIPR EC50): 7.05

CCCCCCCCCCCCCCCC(=O)N[C@@H](CCC(=O)NCCCC[C@H](NC(=O)[C@H](CC(=O)O)NC(=O)[C@H](CO)NC(=O)[C@@H](NC(=O)[C@H](Cc1ccccc1)NC(=O)[C@@H](NC(=O)CNC(=O)[C@H](CCC(N)=O)NC(=O)[C@H](CO)NC(=O)[C@@H](N)Cc1c[nH]cn1)[C@@H](C)O)[C@@H](C)O)C(=O)N[C@@H](CO)C(=O)N[C@@H](CCC(=O)O)C(=O)N[C@@H](Cc1ccc(O)cc1)C(=O)N[C@@H](CC(C)C)C(=O)N[C@@H](CC(=O)O)C(=O)N[C@@H](CO)C(=O)N[C@@H](CCC(=O)O)C(=O)N[C@@H](CCCNC(=N)N)C(=O)N[C@@H](C)C(=O)N[C@@H](CCCNC(=N)N)C(=O)N[C@@H](CC(=O)O)C(=O)N[C@@H](Cc1ccccc1)C(=O)N[C@H](C(=O)N[C@@H](C)C(=O)N[C@@H](Cc1c[nH]c2ccccc12)C(=O)N[C@@H](CC(C)C)C(=O)N[C@@H](CCC(=O)O)C(=O)N[C@@H](C)C(=O)NCC(=O)NCC(=O)O)C(C)C)C(=O)O [Peptide G933]
solubility (physchem; pH 7): ≥ 10000 µg/mL | solubility (physchem; pH 7.2): ≥ 5000 µg/mL | BW day 14 (% change of vehicle mean) (DIO mice; 5 nmol/kg s.c. twice daily for 14 days): −11% | HOMA (DIO mice; 5 nmol/kg s.c. twice daily): 3.31 | Hepatic TG (g TG/100g tissue) (DIO mice; 5 nmol/kg s.c. twice daily): 11.3 g TG/100g tissue | Plasma NEFA (DIO mice; 5 nmol/kg s.c. twice daily): 0.28 mM | Plasma TG (DIO mice; 5 nmol/kg s.c. twice daily): 0.19 mM | Glucose (DIO mice; 5 nmol/kg s.c. twice daily): 6.2 mM | Insulin (DIO mice; 5 nmol/kg s.c. twice daily): 0.53 nM | BW day 14 (% change of vehicle mean) (DIO mice; 10 nmol/kg s.c. twice daily for 14 days): −19% | HOMA (DIO mice; 10 nmol/kg s.c. twice daily): 1.98 | Hepatic TG (g TG/100g tissue) (DIO mice; 10 nmol/kg s.c. twice daily): 14.7 g TG/100g tissue | Plasma NEFA (DIO mice; 10 nmol/kg s.c. twice daily): 0.27 mM | Plasma TG (DIO mice; 10 nmol/kg s.c. twice daily): 0.16 mM | Glucose (DIO mice; 10 nmol/kg s.c. twice daily): 7.2 mM | Insulin (DIO mice; 10 nmol/kg s.c. twice daily): 0.27 nM | effect on body weight over the 14 day dosing period (DIO mice; study B, FIGS. 5-8): dose dependent and continuous weight loss | free peptide at 4.4% HSA (human serum albumin): 0.29% | % DPP cleaved product/+1 DPP cleaved product [2]: <1%

CCCCCCCCCCCCCCCC(=O)N[C@@H](CCC(=O)NCCCC[C@H](NC(=O)[C@H](CO)NC(=O)[C@H](CC(=O)O)NC(=O)[C@H](CC(C)C)NC(=O)[C@H](Cc1ccc(O)cc1)NC(=O)[C@H](CCCCN)NC(=O)[C@H](CO)NC(=O)[C@H](Cc1ccc(O)cc1)NC(=O)[C@H](CC(=O)O)NC(=O)[C@H](CO)NC(=O)[C@@H](NC(=O)[C@H](Cc1ccccc1)NC(=O)[C@@H](NC(=O)CNC(=O)[C@H](CCC(N)=O)NC(=O)CNC(=O)[C@@H](N)Cc1c[nH]cn1)[C@@H](C)O)[C@@H](C)O)C(=O)N[C@@H](CCCNC(=N)N)C(=O)N[C@@H](C)C(=O)N[C@@H](CCC(N)=O)C(=O)N[C@@H](CC(=O)O)C(=O)N[C@@H](Cc1ccccc1)C(=O)N[C@H](C(=O)N[C@@H](CCC(N)=O)C(=O)N[C@@H](Cc1c[nH]c2ccccc12)C(=O)N[C@@H](CC(C)C)C(=O)N[C@H](C(=O)N[C@@H](C)C(=O)NCC(=O)NCC(N)=O)C(C)C)C(C)C)C(=O)O [Peptide G380]
Mouse GlucR/GLP1R Ratio (Mouse GlucR): 0.006 | Human GlucR/GLP1R Ratio (Human GlucR [3]): 0.013

CCCCCCCCCCCCCCCC(=O)N[C@@H](CCC(=O)NCCCC[C@H](NC(=O)[C@H](CO)NC(=O)[C@H](CC(=O)O)NC(=O)[C@H](CC(C)C)NC(=O)[C@H](Cc1ccc(O)cc1)NC(=O)[C@H](CCCCN)NC(=O)[C@H](CO)NC(=O)[C@H](Cc1ccc(O)cc1)NC(=O)[C@H](CC(=O)O)NC(=O)[C@H](CO)NC(=O)[C@@H](NC(=O)[C@H](Cc1ccccc1)NC(=O)[C@@H](NC(=O)CNC(=O)[C@H](CCC(N)=O)NC(=O)[C@H](CO)NC(=O)[C@@H](N)Cc1c[nH]cn1)[C@@H](C)O)[C@@H](C)O)C(=O)N[C@@H](CCCNC(=N)N)C(=O)N[C@@H](C)C(=O)N[C@@H](CCC(=O)O)C(=O)N[C@@H](CC(=O)O)C(=O)N[C@@H](Cc1ccccc1)C(=O)N[C@H](C(=O)N[C@@H](CCC(N)=O)C(=O)N[C@@H](Cc1c[nH]c2ccccc12)C(=O)N[C@@H](CC(C)C)C(=O)N[C@H](C(=O)N[C@@H](C)C(=O)NCC(=O)NCC(N)=O)C(C)C)C(C)C)C(=O)O [g599]
pEC50 (Human GIPr; g688, read-out: hGIPR EC50): 6.95
